# Test results from US20190134039A1, “ANTIVIRAL JAK INHIBITORS USEFUL IN TREATING OR PREVENTING RETROVIRAL AND OTHER VIRAL INFECTIONS” (EMORY UNIVERSITY, priority 2011, published 2019).
# “Also recorded” adds a separate entry of the source. Read-outs that look alike come from different tables or passages of the source.
# How the values were obtained:
# HIV-1BaL = experiment: microbe, parasite or virus in culture; conditions: for EC90: read-out: Anti-HIV-1 EC90 in acutely infected MΦ
# Experimental: Macrophages were isolated as follows: Monocytes were isolated from buffy coats of HIV-1 negative, HBV/HCV-negative donors with density gradient centrifugation coupled with enrichment for CD14+ monocytes with Rosette Sep antibody cocktail (Stem Cell Technologies, Vancouver, British Columbia). Cells were seeded at a concentration of 1.0×10^6 cells/well for 1 hr at 37° C. and 5% CO2 to confer plastic adherence prior to repeated washes with 1×PBS. Macrophages were maintained in medium containing 100 U/ml macrophage colony-stimulating factor (m-CSF, R&D Systems, Minneapolis, Minn.), supplemented with 20% fetal calf serum (Atlanta Biologicals, Lawrenceville, Ga.) and 1% penicillin/streptomyocin (Invitrogen, Carlsbad, Calif.) for 7 days (37° C., 5% CO2) prior to testing.
# Macrophage infections: Macrophages were cultured as described above for 7 days. […] 4 hrs after infection, virus was removed and drug-containing medium was returned to the cultures. Supernatants were collected on day 7 post-infection and HIV-1 p24 was quantified via ELISA (Zeptometrix Corporation, Buffalo, N.Y.). EC50 analysis was performed using CalcuSyn software (BioSoft Corporation, Cambridge, UK).
# activated PBM cells = assay type: cell-based, human
# Excerpt: The data is shown in FIG. 2, in terms of total cell number (10^6 cells) versus aM drug in medium.
# The data is shown in FIG. 3, in terms of cell viability (%) versus aM drug in medium.
# latent HIV-1 [1] = experiment: Reactivation of latent HIV-1 in primary human macrophages (PMA, p24 ELISA); assay type: cell-based; conditions: drug applied during reactivation, removed thereafter, within 72 hr post reactivation
# HIV-1 containing M184V = experiment: microbe, parasite or virus in culture; assay type: cell-based; conditions: Human immunodeficiency virus 1, Lymphocyte
# [2] = system: various NRTI-resistant HIV-1; experiment: Antiviral potency against various NRTI-resistant HIV-1 in primary human lymphocytes (summary over strains); assay type: cell-based; conditions: K65R, M184V, L74V, A62V/V75I/F77L/F116Y/Q151M, 4xAZT
# Excerpt: FI50 is the ratio of EC50 against mutant virus:EC50 against wild-type xxLAI. FI90 is the ratio of EC90 against mutant virus:EC90 against wild-type xxLAI.
# [3] = system: PHA stimulated primary human lymphocytes; experiment: Proliferation and viability of PHA stimulated primary human lymphocytes; assay type: cell-based; conditions: 5 days, all concentrations
# Experimental: (§1) The effect of various Jak inhibitors on proliferation and viability of PHA or PHA+IL-2 stimulated primary human lymphocytes was evaluated using the techniques described above.
# (§2) For all experiments, cells were incubated with media alone or drug-containing medium for 5 days prior to assessment of cell count and viability. Data are mean and standard deviations for at least three independent experiments conducted with at least 4 pooled donors, and duplicates within each experiment.
# pSTAT5 = conditions: primary CD4+T lymphocytes
# pSTAT3 [4] = experiment: cells; conditions: read-out: EC90 pSTAT3
# HIV-1 containing L74V = experiment: microbe, parasite or virus in culture; assay type: cell-based; conditions: Human immunodeficiency virus 1, Lymphocyte
# latent HIV-1 [5] = experiment: Reactivation of latent HIV-1 in memory CD4+ T cells from ART treated aviremic donors; assay type: cell-based; conditions: CD4 T cells from HIV-infected individuals; alone and in the presence of HAART
# Experimental: (§3) FIGS. 11 A-E are graphicals showing that Jak inhibitors reduce frequency of cells harboring integrated viral DNA and IL-15-induced reactivation of latent HIV-1 in CD4 T cells. CD4 T cells were isolated from viremic donors and incubated with CD3/CD28 plus 0.01, 0.1, 1.0 or 10 μM of Jak inhibitors with or without EC99 of ART (180 nM zidovudine, 100 nM efavirenz, 200 nM Raltegravir) (A and B). After six days, integrated viral DNA was quantified using ultra sensitive Alu PCR versus DMSO controls (n=5). 0.01 μM represents the average of all assays completed using % DMSO equivalent to Jak inhibitor concentrations. Error bars represent S.E.M. and statistical significance determined by two-way ANOVA followed by Sidak's multiple comparison post-test: *p<0.05, **p<0.01, ***p<0.001 and ****p<0.0001 for A and B. In panel C-E, memory CD4^+ T cells were isolated from ART treated aviremic donors (n=3), activated with 10 ng/ml IL-15 (panel D) or CD3/CD28 (panel E) and maintained with or without 1 μM ruxolitinib in the presence of ART. Six days post reactivation, extracellular viral RNA copies were quantified by qRT-PCR (*p<0.01, one-way ANOVA).
# HIV-1 containing K65R = experiment: microbe, parasite or virus in culture; assay type: cell-based; conditions: Human immunodeficiency virus 1, Lymphocyte
# pSTAT1 = conditions: primary CD4+T lymphocytes
# wild-type HIV-1xxLAI = experiment: Antiviral potency in primary human lymphocytes, wild type; assay type: cell-based; conditions: Human immunodeficiency virus 1, Lymphocyte; xxLAI; primary human lymphocytes; read-out: EC90
# [6] = system: HIV-1 containing 4xAZT (D67N/K70R/T215Y/K219Q); experiment: microbe, parasite or virus in culture; assay type: cell-based; conditions: Human immunodeficiency virus 1, Lymphocyte
# [7] = system: acute infection in rhesus macaque lymphocytes; experiment: cells; conditions: Macaca mulatta, Lymphocyte; for EC90: read-out: Acute infection in rhesus macaque lymphocytes EC90
# Excerpt: (§4) The data (Shown in Table 5 below) are mean and standard deviations from at least three independent experiments.
# [8] = system: acute infection in rhesus macaque macrophages; experiment: cells; conditions: for EC90: read-out: Acute infection in rhesus macaque macrophages EC90
# Excerpt: as §4
# [9] = system: HIV-1 containing A62V/V75I/F77L/F116Y/Q151M; experiment: microbe, parasite or virus in culture; assay type: cell-based; conditions: Human immunodeficiency virus 1, Lymphocyte
# [10] = system: PHA+IL-2 stimulated primary human lymphocytes; experiment: Proliferation and viability of PHA+IL-2 stimulated primary human lymphocytes; assay type: cell-based; conditions: PHA+IL-2 stimulated lymphocytes, 5 days
# Experimental: as §1, §2
# integrated viral DNA = experiment: Integrated viral DNA in CD4 T cells from viremic donors (Alu PCR); assay type: cell-based; conditions: CD4 T cells from HIV-infected individuals; alone and in the presence of HAART
# Experimental: as §3
# HIV-2 = experiment: microbe, parasite or virus in culture; conditions: Human immunodeficiency virus 2, PBMC; for EC90: read-out: Anti-HIV-2 EC90 in acutely infected PBM cells
# pSTAT3 [11] = conditions: primary CD4+T lymphocytes
# HIV-1LAI = experiment: microbe, parasite or virus in culture; conditions: for EC90: read-out: Anti-HIV-1 EC90 in acutely infected PBM cells
# Excerpt: PBM cells were isolated as follows: Lymphocytes were isolated from buffy coats derived from healthy donors obtained from Life South Laboratories (Dunwoody, Ga.). Activated lymphocytes were maintained for 72 hrs in medium that was supplemented with […] phytohemagglutinin (PHA) (Cape Cod associates, East Falmouth, Mass.). Media was comprised of RPMI media supplemented with 20% fetal calf serum, 1% penicillin/streptomyocin and 2% L-glutamine (Sigma Aldrich, San Jose, Calif.).
# PBM cell infections: Testing was performed in duplicate with at least 3 independent assays. Cells were incubated in RPMI medium (HyClone, Logan, Utah) containing HR-IL2 (26.5 units/ml) and 20% fetal calf serum. Infections were performed by adding HIV-1LA1 followed by a further incubation at 37° C., 5% CO2, 1 hr prior to addition of drugs. Assays were performed in 24 well plates (BD Biosciences, Franklin Lakes, N.J.). One ml of supernatant was collected after 5 days in culture and then centrifuged at 12,000 rpm for 2 hr at 4° C. in a Jouan Br43i (Thermo Electron Corp., Marietta, Ohio). The product of the RT assay was quantified using a Packard harvester and direct beta counter and the data were analyzed as previously described (Schinazi et al, 1990).
# PBM cells = experiment: cells; conditions: Homo sapiens, PBMC, read-out: IC50 in PBM cells *Propidium Iodide assay
# Mφ = experiment: cells; conditions: Homo sapiens, read-out: IC50 in Mφ *MTT Assay
# PHA + IL-2 PBM cells = experiment: cells; conditions: Homo sapiens, PBMC, read-out: IC50 in PHA + IL-2 PBM cells *MTT Assay
# PHA stimulated PBM cells = experiment: cells; conditions: Homo sapiens, PBMC, read-out: IC50 in PHA stimulated PBM cells *MTT Assay
# [12] = Human immunodeficiency virus 1, Macrophage, in Homo sapiens
# [13] = Human immunodeficiency virus 1, PBMC, in Homo sapiens
compound,measurement,setting,value
"C[C@@H]1CCN(C(=O)CC#N)C[C@@H]1N(C)c1ncnc2[nH]ccc12 [Tofacitinib, 3-{(3R,4R)-4 methyl-3-[methyl-(7H-pyrrolo[2,3-d]pyrimidin-4-yl)-amino]-piperidin-1-yl}-3-oxo-propionitrile]",EC90,HIV-1BaL; [12],2.9 ± 1.4 µM
same,inhibition of HIV-1 replication,HIV-1BaL; MØ cells,sub-micromolar
same,total cell proliferation (total cell number),activated PBM cells,do not affect total cell proliferation
same,total cell viability,activated PBM cells,do not affect total cell viability
same,percent inhibition of reactivation of latent HIV-1 versus no drug control,latent HIV-1 [1],~40%
same,EC90,HIV-1 containing M184V,27.1 ± 15.7 µM
same,FI50 or FI90 versus wild type HIV-1xxLAI,[2],not significant increase; also recorded: did not display a significant difference
same,antiviral potency for wild-type HIV-1xxLAI versus NRTI-resistant HIV-1,[2],not significantly different
same,proliferation versus cells exposed to media alone,[3],not significantly different
same,viability versus cells exposed to media alone,[3],not significantly different
same,concentrations inhibiting IFN-α induced phosphorylation of STAT5,pSTAT5,sub-micromolar
same,EC90,pSTAT3 [4],0.9 µM
same,EC90,HIV-1 containing L74V,47.7 ± 45.3 µM
same,reservoir reactivation,latent HIV-1 [5],block reservoir reactivation
same,EC90,HIV-1 containing K65R,81.2 ± 26.7 µM
same,concentrations inhibiting IFN-α induced phosphorylation of STAT1,pSTAT1,sub-micromolar
same,EC90,wild-type HIV-1xxLAI,28.4 ± 16.7 µM
same,EC90,[6],17.1 ± 4.5 µM
same,EC90,[7],2.9 ± 0.5 µM
same,EC90,"[8]; Macaca mulatta, Macrophage",~4 µM
same,EC90,[8],3.1 ± 0.9 µM
same,EC90,[9],8.9 ± 8.8 µM
same,proliferation versus cells exposed to media alone,[10]; 1.0 μM,significantly inhibited
same,viability versus cells exposed to media alone,[10]; all concentrations,not significantly different
same,size of the HIV reservoir,integrated viral DNA,decay the size of the HIV reservoir
same,EC90,HIV-2,1.8 ± 1.1 µM
same,concentrations inhibiting IFN-α induced phosphorylation of STAT3,pSTAT3 [11],sub-micromolar
same,EC90,HIV-1LAI; [13],17.1 ± 15.1 µM
same,inhibition of HIV-1 replication,HIV-1LAI; PBM cells,sub-micromolar
"Cc1cn([C@H]2C[C@H](N=[N+]=[N-])[C@@H](CO)O2)c(=O)[nH]c1=O [AZT, 3′-azido-3′-deoxythymidine]",EC50,"HIV-1BaL; Human immunodeficiency virus 1, Macrophage, in Homo sapiens, read-out: Anti-HIV-1 EC50 in acutely infected MΦ",0.01 ± 0.02 µM
same,EC90,HIV-1BaL; [12],0.07 ± 0.12 µM
same,IC50,PBM cells,> 50 µM
same,EC50,HIV-1 containing M184V,0.01 ± 0.02 µM
same,EC90,HIV-1 containing M184V,0.02 ± 0.01 µM
same,IC50,Mφ,> 100 µM
same,EC50,HIV-1 containing L74V,0.02 ± 0.02 µM
same,EC90,HIV-1 containing L74V,0.2 ± 0.1 µM
same,CC50,PHA + IL-2 PBM cells,> 100 µM
same,EC50,HIV-1 containing K65R,0.04 ± 0.02 µM
same,EC90,HIV-1 containing K65R,0.3 ± 0.1 µM
same,IC50,PHA stimulated PBM cells,> 100 µM
same,EC90,wild-type HIV-1xxLAI,0.1 ± 0.08 µM
same,EC50,[6],0.1 ± 0.1 µM
same,EC90,[6],53.3 ± 66.1 µM
same,EC50,[7]; read-out: Acute infection in rhesus macaque lymphocytes EC50,0.002 ± 0.001 µM
same,EC90,[7],0.03 ± 0.02 µM
same,EC50,"[8]; Macaca mulatta, Macrophage, read-out: Acute infection in rhesus macaque macrophages EC50",0.08 ± 0.1 µM
same,EC90,"[8]; Macaca mulatta, Macrophage",0.9 ± 0.7 µM
same,EC50,[9],4.6 ± 7.7 µM
same,EC90,[9],41.2 ± 50.2 µM
same,EC50,HIV-2; read-out: Anti-HIV-2 EC50 in acutely infected PBM cells,0.001 ± 0.0008 µM
same,EC90,HIV-2,0.01 ± 0.01 µM
same,EC50,"HIV-1LAI; Human immunodeficiency virus 1, PBMC, in Homo sapiens, read-out: Anti-HIV-1 EC50 in acutely infected PBM cells",0.02 ± 0.008 µM
same,EC90,HIV-1LAI; [13],0.13 ± 0.03 µM
